How the values were obtained:
[1] = tested on: mushroom tyrosinase (EC 1.14.18.1); assay: Tyrosinase inhibition assay (test for whitening activity); format: biochemical
Procedure: Tyrosinase activity is determined in reaction mixtures containing […], 30 units/ml of mushroom tyrosinase (EC 1.14.18.1), 75 mM sodium phosphate (pH 7.5), and test sample at the indicated concentrations. The reaction is conducted at room temperature and is monitored by measuring the increase in OD405 as melanin pigment is produced.
Tyrosinase activity was determined by measuring the rate of change of optical density at 490 nm as tyrosine was converted into dopachrome. (Tyrosinase catalyzes the conversion of tyrosine into DOPA quinone, which spontaneously converts into dopachrome.) The rate of tyrosinase activity in the presence of various concentrations of test sample was measured at room temperature in a reaction mixture containing 50 mM sodium phosphate (pH 6.75), 275 μM tyrosine and 25U/ml mushroom tyrosinase (wherein U refers to the units of enzyme activity. Readings were made at one minute intervals for ten minutes and the reaction rate was calculated by linear regression. Each concentration was run in triplicate. Inhibition of tyrosinase activity was expressed as a percentage of the activity measured for the untreated control mixture (no test sample). An EC50 (the concentration of test sample that inhibits 50% of tyrosinase activity) was calculated.

Cloudman S91 melanocytes = assay: Cell-based whitening/tanning assay (melanocyte pigmentation assay); conditions: concentration 30 (30μM in method), 5-day treatment, 10nM MSH
Procedure: The melanocyte pigmentation assay measures a test sample's ability to inhibit pigmentation. […] After a 5-day treatment period with each condition tested in triplicate wells, the cells were harvested by washing with PBS and adding 5% trichloroacetic acid to each well. After a 15 minute incubation the acid was aspirated and replaced with 200μl/well of 10% dimethyl sulfoxide/1N sodium hydroxide. The plates were sealed and incubated at 65° C. for 30 minutes. 200μl of each digestion mixture was then transferred to a well of a 96-well microtiter plate and optical densities were read at 405 nm.
An EC50 (the concentration of test sample that inhibits 50% of pigmentation) was calculated for each sample.

% inhibition (tyrosinase) ([1]; concentration 1.25 (M)): 26.7%
mod/min mean (tyrosinase reaction rate) ([1]; concentration 1.25 (M)): 7.95 mod/min
% inhibition (tyrosinase) ([1]; concentration 2.5 (M)): 45.5%
mod/min mean (tyrosinase reaction rate) ([1]; concentration 2.5 (M)): 5.92 mod/min
% inhibition (tyrosinase) ([1]; concentration 10.5 (M)): 75.8%
mod/min mean (tyrosinase reaction rate) ([1]; concentration 10.5 (M)): 2.63 mod/min
% inhibition (tyrosinase) ([1]; concentration 20 (M)): 92.2%
mod/min mean (tyrosinase reaction rate) ([1]; concentration 20 (M)): 0.85 mod/min
Structure (SMILES): Oc1ccc(O)cc1 [Hydroquinone]
inhibition at 30 µM (Cloudman S91 melanocytes; Melanocyte, 120 h, read-out: % Stimulation (+)/ Inhibition (−) of pigmentation): 36.6%
mean (optical density at 405 nm, pigmentation) (Cloudman S91 melanocytes): 0.801
